The values that follow come from US20240368127A1, “HSD17B13 INHIBITORS AND USES THEREOF” (FL2022-001, Inc., priority 2021, published 2024).

The structures appear in SMILES notation.

The target in the assay is T1, Recombinant human HSD17B13 enzyme (Homo sapiens, UniProt Q7Z5P4).
T1 sequence (Q7Z5P4 20-300): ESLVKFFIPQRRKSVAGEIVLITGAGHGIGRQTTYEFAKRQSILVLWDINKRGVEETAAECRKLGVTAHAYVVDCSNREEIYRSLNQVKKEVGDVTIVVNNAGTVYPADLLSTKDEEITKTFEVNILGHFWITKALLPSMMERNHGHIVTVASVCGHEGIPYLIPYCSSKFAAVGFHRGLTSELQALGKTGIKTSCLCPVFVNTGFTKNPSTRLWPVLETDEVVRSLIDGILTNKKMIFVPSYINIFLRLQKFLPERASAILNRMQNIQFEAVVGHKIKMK
In words: HSD17b13 NAD(P)H-Glo biochemical assay. The following applies: 50 μM estradiol, 1 mM NAD+, 37° C. for 3 hours; read-out: HSD17β13 IC50. Summed up: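 Enzyme preincubated with inhibitor 20 min at RT in 20 mM Tris pH7.4, 0.002% Tween-20, 0.02% BSA, then reacted 3 h at 37° C with 50 μM estradiol and 1 mM NAD+ (final). NADH formation read by NAD(P)H-Glo luminescence after 1 h at RT.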
For `Cc1cc(-c2nn(C)c3nc(N4CCN(S(C)(=O)=O)C[C@H]4Cc4ccccc4)ncc23)c(F)c(O)c1F` [Compound 11.08, (R)-3-(6-(2-Benzyl-4-(methylsulfonyl)piperazin-1-yl)-1-methyl-1H-pyrazolo[3,4-d]pyrimidin-3-yl)-2,6-difluoro-5-methylphenol], the IC50 is at most 100 nM.

On to `Cn1nc(-c2cc(F)c(F)c(O)c2F)c2cnc(N3CCN(S(C)(=O)=O)C[C@H]3Cc3ccccc3)nc21` [Compound 11.09, (R)-3-(6-(2-Benzyl-4-(methylsulfonyl)piperazin-1-yl)-1-methyl-1H-pyrazolo[3,4-d]pyrimidin-3-yl)-2,5,6-trifluorophenol], for which the IC50 is at most 100 nM. The figure for `Cn1nc(-c2cc(F)c(Cl)c(O)c2F)c2cnc(N3CCN(S(C)(=O)=O)C[C@H]3Cc3ccccc3)nc21` [Compound 11.10, (R)-3-(6-(2-Benzyl-4-(methylsulfonyl)piperazin-1-yl)-1-methyl-1H-pyrazolo[3,4-d]pyrimidin-3-yl)-6-chloro-2,5-difluorophenol] is at most 100 nM; for `Cn1nc(-c2cccc(O)c2)c2cnc(N3CCN(S(C)(=O)=O)C[C@H]3Cc3ccccc3)nc21` [Compound 11.11, (R)-3-(6-(2-Benzyl-4-(methylsulfonyl)piperazin-1-yl)-1-methyl-1H-pyrazolo[3,4-d]pyrimidin-3-yl)phenol] it is 1000 to 30000 nM; for `Cn1nc(-c2cc(Cl)c(F)c(O)c2F)c2cnc(N3CCN(S(C)(=O)=O)C[C@H]3Cc3ccccc3)nc21` [Compound 11.12, (R)-3-(6-(2-Benzyl-4-(methylsulfonyl)piperazin-1-yl)-1-methyl-1H-pyrazolo[3,4-d]pyrimidin-3-yl)-5-chloro-2,6-difluorophenol] it is at most 100 nM. Under `Cn1nc(-c2cc(C(F)(F)F)c(F)c(O)c2F)c2cnc(N3CCN(S(C)(=O)=O)CC3CC3CC3)nc21` (stereo not shown) [Compound 11.13, 3-(6-(2-(Cyclopropylmethyl)-4-(methylsulfonyl)piperazin-1-yl)-1-methyl-1H-pyrazolo[3,4-d]pyrimidin-3-yl)-2,6-difluoro-5-(trifluoromethyl)phenol] stands at most 100 nM; under `Cn1nc(-c2cc(C(F)(F)F)c(F)c(O)c2F)c2cnc(N3CCN(C(=O)C(F)(F)F)CC3CC3CC3)nc21` (stereo not shown) [Compound 11.14, 1-(3-(Cyclopropylmethyl)-4-(3-(2,4-difluoro-3-hydroxy-5-(trifluoromethyl)phenyl)-1-methyl-1H-pyrazolo[3,4-d]pyrimidin-6-yl)piperazin-1-yl)-2,2,2-trifluoroethan-1-one], at most 100 nM.

Turning to `Cn1nc(-c2cc(O)c(F)c(F)c2C#N)c2cnc(N3CCN(S(C)(=O)=O)C[C@H]3Cc3ccccc3)nc21` [Compound 11.15, (R)-6-(6-(2-Benzyl-4-(methylsulfonyl)piperazin-1-yl)-1-methyl-1H-pyrazolo[3,4-d]pyrimidin-3-yl)-2,3-difluoro-4-hydroxybenzonitrile], the half-inhibitory concentration (IC50) was at most 100 nM. The figure for `Cn1nc(-c2c(C#N)cc(F)c(O)c2F)c2cnc(N3CCN(S(C)(=O)=O)C[C@H]3Cc3ccccc3)nc21` [Compound 11.16, 2-(6-((R)-2-Benzyl-4-(methylsulfonyl)piperazin-1-yl)-1-methyl-1H-pyrazolo[3,4-d]pyrimidin-3-yl)-3,5-difluoro-4-hydroxybenzonitrile] is at most 100 nM; for `C#Cc1cc(-c2nn(C)c3nc(N4CCN(S(C)(=O)=O)C[C@H]4Cc4ccccc4)ncc23)c(F)c(O)c1F` [Compound 11.17, (R)-3-(6-(2-Benzyl-4-(methylsulfonyl)piperazin-1-yl)-1-methyl-1H-pyrazolo[3,4-d]pyrimidin-3-yl)-5-ethynyl-2,6-difluorophenol] it is at most 100 nM. Under `CC#Cc1cc(-c2nn(C)c3nc(N4CCN(S(C)(=O)=O)C[C@H]4Cc4ccccc4)ncc23)c(F)c(O)c1F` [Compound 11.18, (R)-3-(6-(2-Benzyl-4-(methylsulfonyl)piperazin-1-yl)-1-methyl-1H-pyrazolo[3,4-d]pyrimidin-3-yl)-2,6-difluoro-5-(prop-1-yn-1-yl)phenol] stands at most 100 nM. `Cc1c(C(F)(F)F)cc(-c2nn(C)c3nc(N4CCN(S(C)(=O)=O)C[C@H]4Cc4ccccc4)ncc23)c(F)c1O` [Compound 11.19, (R)-3-(6-(2-Benzyl-4-(methylsulfonyl)piperazin-1-yl)-1-methyl-1H-pyrazolo[3,4-d]pyrimidin-3-yl)-2-fluoro-6-methyl-5-(trifluoromethyl)phenol]: the IC50 is at most 100 nM. Under `Cc1c(F)cc(-c2nn(C)c3nc(N4CCN(S(C)(=O)=O)C[C@H]4Cc4ccccc4)ncc23)c(F)c1O` [Compound 11.20, (R)-3-(6-(2-Benzyl-4-(methylsulfonyl)piperazin-1-yl)-1-methyl-1H-pyrazolo[3,4-d]pyrimidin-3-yl)-2,5-difluoro-6-methylphenol] stands at most 100 nM; under `CN(C)C(=O)N1CCN(c2ncc3c(-c4cc(C(F)(F)F)c(F)c(O)c4F)nn(C)c3n2)C(CC2CC2)C1` (stereo not shown) [Compound 11.21, 3-(Cyclopropylmethyl)-4-(3-(2,4-difluoro-3-hydroxy-5-(trifluoromethyl)phenyl)-1-methyl-1H-pyrazolo[3,4-d]pyrimidin-6-yl)-N,N-dimethylpiperazine-1-carboxamide], at most 100 nM. Turning to `CCn1nc(-c2cc(C(F)(F)F)c(F)c(O)c2F)c2cnc(N3CCN(S(C)(=O)=O)C[C@H]3Cc3ccccc3)nc21` [Compound 11.22, (R)-3-(6-(2-Benzyl-4-(methylsulfonyl)piperazin-1-yl)-1-ethyl-1H-pyrazolo[3,4-d]pyrimidin-3-yl)-2,6-difluoro-5-(trifluoromethyl)phenol], the half-inhibitory concentration (IC50) was at most 100 nM. The figure for `COC(=O)[C@@H]1COCCN1c1ncc2c(-c3cc(C(F)(F)F)c(F)c(O)c3F)nn(C)c2n1` [Compound 11.23, Methyl (S)-4-(3-(2,4-difluoro-3-hydroxy-5-(trifluoromethyl)phenyl)-1-methyl-1H-pyrazolo[3,4-d]pyrimidin-6-yl)morpholine-3-carboxylate] is at most 100 nM; for `CC(C)NC(=O)[C@@H]1COCCN1c1ncc2c(-c3cc(C(F)(F)F)c(F)c(O)c3F)nn(C)c2n1` [Compound 11.24, (S)-4-(3-(2,4-Difluoro-3-hydroxy-5-(trifluoromethyl)phenyl)-1-methyl-1H-pyrazolo[3,4-d]pyrimidin-6-yl)-N-isopropylmorpholine-3-carboxamide] it is at most 100 nM; for `Cn1nc(-c2cc(C(F)(F)F)c(F)c(O)c2F)c2cnc(N3CCOC[C@H]3C(=O)NC3CCCCC3)nc21` [Compound 11.25, (S)-N-Cyclohexyl-4-(3-(2,4-difluoro-3-hydroxy-5-(trifluoromethyl)phenyl)-1-methyl-1H-pyrazolo[3,4-d]pyrimdiin-6-yl)morpholine-3-carboxamide] it is at most 100 nM. Under `Cn1nc(-c2cc(C(F)(F)F)c(F)c(O)c2F)c2cnc(N3CCOC[C@H]3C(=O)N3CCCCC3)nc21` [Compound 11.26, (S)-(4-(3-(2,4-Difluoro-3-hydroxy-5-(trifluoromethyl)phenyl)-1-methyl-1H-pyrazolo[3,4-d]pyrimidin-6-yl)morpholin-3-yl)(piperidin-1-yl)methanone] stands at most 100 nM. Under `Cn1nc(-c2cc(C(F)(F)F)c(F)c(O)c2F)c2cnc(N3CCN(S(C)(=O)=O)CC3CC3CCC3)nc21` (stereo not shown) [Compound 11.27, 3-(6-(2-(Cyclobutylmethyl)-4-(methylsulfonyl)piperazin-1-yl)-1-methyl-1H-pyrazolo[3,4-d]pyrimidin-3-yl)-2,6-difluoro-5-(trifluoromethyl)phenol] stands at most 100 nM; under `Cn1nc(-c2cc(C(F)(F)F)c(F)c(O)c2F)c2cnc(N3CCN(C(N)=O)CC3CC3CC3)nc21` (stereo not shown) [Compound 11.28, 3-(Cyclopropylmethyl)-4-(3-(2,4-difluoro-3-hydroxy-5-(trifluoromethyl)phenyl)-1-methyl-1H-pyrazolo[3,4-d]pyrimidin-6-yl)piperazine-1-carboxamide], at most 100 nM; under `Cn1nc(-c2cc(C(F)(F)F)c(F)c(O)c2F)c2cnc(N3CCO[C@@H](Cc4ccccc4)C3)nc21` [Compound 12, (S)-3-(6-(2-Benzylmorpholino)-1-methyl-1H-pyrazolo[3,4-d]pyrimidin-3-yl)-2,6-difluoro-5-(trifluoromethyl)phenol], at most 100 nM. On to `Cn1nc(-c2cc(C(F)(F)F)c(F)c(O)c2F)c2cnc(N3CCO[C@@H](Cc4cccnc4)C3)nc21` [Compound 12.01, (S)-2,6-Difluoro-3-(1-methyl-6-(2-(pyridin-3-ylmethyl)morpholino)-1H-pyrazolo[3,4-d]pyrimidin-3-yl)-5-(trifluoromethyl)phenol], for which the 50% inhibitory concentration (IC50) was at most 100 nM. Under `Cn1nc(-c2cc(C(F)(F)F)c(F)c(O)c2F)c2cnc(N3CCO[C@@H](Cc4ccc(C#N)cc4)C3)nc21` [Compound 12.02, (S)-4-((4-(3-(2,4-Difluoro-3-hydroxy-5-(trifluoromethyl)phenyl)-1-methyl-1H-pyrazolo[3,4-d]pyrimidin-6-yl)morpholin-2-yl)methyl)benoznitrile] stands at most 100 nM; under `Cn1nc(-c2cc(C(F)(F)F)c(F)c(O)c2F)c2cnc(N3CCO[C@@H](Cc4cccc(C#N)c4)C3)nc21` [Compound 12.03, (S)-3-((4-(3-(2,4-Difluoro-3-hydroxy-5-(trifluoromethyl)phenyl)-1-methyl-1H-pyrazolo[3,4-d]pyrimidin-6-yl)morpholin-2-yl)methyl)benzonitrile], at most 100 nM.

One may read the IC50 as the concentration that gives 50% inhibition.
